From paper PMC8145110, “Design, Synthesis, and Antibacterial Screening of Some Novel Heteroaryl-Based Ciprofloxacin Derivatives as DNA Gyrase and Topoisomerase IV Inhibitors” (Pharmaceuticals, 2021)
≈ marks a conversion by molar mass, not a printed value.

Assays:
[1] = tested on: S. aureus; experiment: MIC, two-fold serial dilution, S. aureus; assay type: cell-based, Staphylococcus aureus; conditions: Staphylococcus aureus; read-out: Minimum Inhibitory Concentration (MIC), S. aureus
Description: (§1) Table 2, using the reference drug ciprofloxacin, was presented with the MICs (minimal inhibitory concentrations) of these compounds against tested bacteria. […] The nature of aromatic substitution in the oxadiazole moiety tends to be correlated with higher antibacterial effects and the activity increased with (Ar) in the order of 2-pyridyl ≥ 3-pyridyl > 4-pyridyl > 2-Cl-Ph > 2-naphthyl.
(§2) On 96-well microtiter plates and […] of fresh bacterial culture of a single McFarland unit overnight, a double serial dilution of each compound […] in sterile standard saline was prepared for every single source well. Ciprofloxacin antibiotic (5 mg/mL^−1) and normal saline were included as standard references in each assay (see Appendix A).
(§3) In 96-well microtiter plates and […] of fresh bacterial culture of a single McFarland unit overnight, a double serial dilution of each compound […] in sterile standard saline was prepared for every single source well. Ciprofloxacin antibiotic (5 mg/mL^−1) and normal saline were included as standard reference in each assay. The plates were incubated at 37 °C overnight. As an indicator of bacterial growth, […] of p-iodonitrotetrazolium violet (INT) was added to each well and incubated at 37 °C for 30 min. […] The colorless tetrazolidium salt acts as an electron accepter and is reduced to a red colored formazan product by biological activity organisms. Where bacterial growth was inhibited, the solution in the well remained clear after incubation with INT.

[2] = tested on: B. subtilis; experiment: MIC, two-fold serial dilution, B. subtilis; assay type: cell-based; conditions: Bacillus subtilis; read-out: Minimum Inhibitory Concentration (MIC), B. subtilis
Description: as §1, §2, §3

[3] = Cell viability assay (MTT); assay type: cell-based; parameters: dose or concentration left out as unconfirmed; conditions: human, MCF-10A mammary gland epithelial cells, four days
Description: A human mammary gland epithelial cell line (MCF-10A) was used to conduct a cell viability assay. Compounds 2–6 were incubated with MCF-10A cells for four days, and the viability of the cells was determined using the 3-(4,5-dimethylthiazol-2-yl)-2,5-diphenyltetrazolium bromide (MTT) assay. All compounds had no cytotoxic effects, and the viability of the cells was greater than 85% for most of the compounds examined […], as shown in Table 4.
MTT Assay was performed to investigate the effect of compounds 2–6 on the viability of mammary epithelial cells (MCF-10A) (see Appendix A).

[4] = molecular target: T1, E. coli DNA gyrase (Escherichia coli, UniProt P0AES4+P0AES6); experiment: E. coli DNA gyrase assay; assay type: biochemical
T1 construct: purchased Inspiralis
T1 sequence (P0AES4 whole entry, one chain of several): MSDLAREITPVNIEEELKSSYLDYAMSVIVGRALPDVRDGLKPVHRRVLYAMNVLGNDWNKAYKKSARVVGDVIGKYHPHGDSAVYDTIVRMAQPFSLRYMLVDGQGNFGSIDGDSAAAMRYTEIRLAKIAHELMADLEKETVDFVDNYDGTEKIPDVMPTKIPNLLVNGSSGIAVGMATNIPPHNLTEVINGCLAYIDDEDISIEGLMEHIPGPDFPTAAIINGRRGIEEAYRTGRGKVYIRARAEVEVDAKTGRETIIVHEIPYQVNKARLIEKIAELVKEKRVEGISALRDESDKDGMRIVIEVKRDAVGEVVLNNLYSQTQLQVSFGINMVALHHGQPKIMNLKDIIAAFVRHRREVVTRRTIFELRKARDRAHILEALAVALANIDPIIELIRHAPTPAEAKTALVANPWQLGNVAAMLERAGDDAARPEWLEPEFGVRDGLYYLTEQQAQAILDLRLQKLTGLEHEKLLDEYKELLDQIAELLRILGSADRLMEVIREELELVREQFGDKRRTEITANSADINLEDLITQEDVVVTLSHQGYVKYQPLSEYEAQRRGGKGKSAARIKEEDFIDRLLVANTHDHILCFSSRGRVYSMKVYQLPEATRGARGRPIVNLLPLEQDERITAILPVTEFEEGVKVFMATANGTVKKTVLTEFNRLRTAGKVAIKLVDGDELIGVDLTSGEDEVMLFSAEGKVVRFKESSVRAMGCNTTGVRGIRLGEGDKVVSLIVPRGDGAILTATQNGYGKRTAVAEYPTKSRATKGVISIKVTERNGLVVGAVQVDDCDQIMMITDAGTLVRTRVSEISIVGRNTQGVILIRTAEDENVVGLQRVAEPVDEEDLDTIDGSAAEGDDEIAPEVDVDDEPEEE
Description: (§4) IC50 assay determination was carried out in accordance with the procedures previously stated (see Appendix A).
(§5) Inhibitory activities were determined in an assay from Inspiralis on streptavidin-coated 96-well microtiter plates from Thermo scientific Pierce. […] After washing off the unbound oligonucleotide, the enzyme test was performed. […] After that, the TF buffer (50 mM NaOAc with pH 5.0, 50 mM NaCl and 50 mM MgCl2) was added to terminate the enzymatic reaction. After additional incubation for 30 min at rt, during which biotin-oligonucleotide-plasmid triplex was 19 formed, the unbound plasmid was washed off using TF buffer and SybrGOLD in T10 buffer (10 mM Tris HCl with pH 8.0 and 1 mM EDTA) was added. […] Initial screening was done at 100 or 10 μM concentration of inhibitors. […] GraphPad Prism software was used to calculate the IC50 values. The result is given as the average value of three independent measurements. […] Determination of inhibitory activities on E. coli and S. aureus Topoisomerase IV IC50 values were determined in an assay from Inspiralis on streptavidin-coated 96-well microtiter plates from Thermo scientific Pierce. […] After washing off the unbound oligonucleotide, the enzyme test was performed. The reaction volume of 30 μL in buffer (40 mM HEPES KOH with pH 7.6, 100 mM potassium glutamate, 10 mM magnesium acetate, 10 mM DTT, 1 mM ATP, 0.05 mg/mL albumin) contained 1.5 U of topoisomerase IV from E. coli or S. aureus, 0.75 μg of pNO1 supercoiled plasmid, and 3 μL solution of the inhibitor in DMSO (10%) and Tween 20 (0.008%). […] After additional incubation for 30 min at rt, during which triplex (biotin-oligonucleotide-plasmid) was formed, the unbound plasmid was washed off using TF buffer and SybrGOLD in T10 buffer (10 mM Tris HCl with pH 8.0 and 1 mM EDTA) was added. […] Initial screening was done at 100 or 10 μM concentration of inhibitors. […] GraphPad Prism software was used to calculate the IC50 values. The result is given as the average value of three independent measurements.

[5] = tested on: Staphylococcus aureus (ATCC 12600); experiment: Kirby-Bauer disc diffusion, S. aureus; assay type: cell-based; conditions: % of ciprofloxacin
Description: (§6) An updated Kirby-Bauer disc diffusion method was used to assess the antimicrobial activity of the tested samples [32, 33, 34, 35]. Using ciprofloxacin as a reference drug, synthetic compounds 1–21 were tested in vitro for antibacterial activity against S. aureus and B. subtilis as Gram-positive strains and E. coli and P. aeruginosa as Gram-negative strains. […]. […].
(§7) The cultures used were collected from the Cairo University’s Microanalytical Centre, Faculty of Science. An updated Kirby-Bauer disc diffusion method was applied for antimicrobial activities of the tests 1–21 compounds [32, 33, 34, 35]. See Appendix A.
The cultures used were collected from the Cairo University’s Microanalytical Centre, Faculty of Science. An updated Kirby-Bauer disc diffusion method was applied for the antimicrobial activities of the tests for compounds 1–21 [28]. Shortly after, 10 mL of fresh medium was grown to 100 μL bacteria/food until a count of 10^8 cells/mL or 10^5 cells/mL was achieved. One hundred μL microbial suspension was spread over agar plates that suited the broth in which it was held. The selected colonies of each organism that may play a pathogenic function should be from the primary agar plates and tested by the disc diffusion method for susceptibility. Plates inoculated with filamentous fungi as Aspergillus flavus were incubated at 25 °C for 48 h; Gram positive bacteria as Staphylococcus aureus (ATCC 12600, Microanalytical center, Cairo, Egypt), Bacillus subtilis (ATCC 6051); Gram negative bacteria as Escherichia coli (ATCC 11775), Pseudomonas aeuroginosa (ATCC 10145) were incubated at 35–37 °C for 24–48 h and yeast as Candida albicans (ATCC 7102) was incubated at 30 °C for 24–48 h and, then the diameters of the inhibition zones were measured in millimeters. Standard discs of ciprofloxacin (antibacterial agent), fluconazole (antifungal agent) served as positive controls for antimicrobial activity, but filter discs impregnated with 10 µL of solvent (distilled water, chloroform, DMSO) were used as a negative control. Blank paper disks (Schleicher and Schuell, Cytiva, Spain) with a diameter of 8.0 mm were impregnated with 10 µL of tested concentration of the stock solutions. When a filter paper disc impregnated with a tested chemical is placed on agar, the chemical will diffuse from the disc into the agar. This diffusion will place the chemical in the agar only around the disc. The solubility of the chemical and its molecular size will determine the size of the area of chemical infiltration around the disc. […] For the disc diffusion, the zone diameters were measured with slipping calipers of the National Committee for Clinical Laboratory Standards, and the results are given in Table 1. […]

[6] = tested on: E. coli; experiment: MIC, two-fold serial dilution, E. coli; assay type: cell-based; conditions: Escherichia coli; read-out: Minimum Inhibitory Concentration (MIC), E. coli
Description: as §1, §2, §3

[7] = tested on: Escherichia coli (ATCC 11775); experiment: Kirby-Bauer disc diffusion, E. coli; assay type: cell-based; conditions: % of ciprofloxacin
Description: as §6, §7
The cultures used were collected from the Cairo University’s Microanalytical Centre, Faculty of Science. An updated Kirby-Bauer disc diffusion method was applied for the antimicrobial activities of the tests for compounds 1–21 [28]. Shortly after, 10 mL of fresh medium was grown to 100 μL bacteria/food until a count of 10^8 cells/mL or 10^5 cells/mL was achieved. One hundred μL microbial suspension was spread over agar plates that suited the broth in which it was held. The selected colonies of each organism that may play a pathogenic function should be from the primary agar plates and tested by the disc diffusion method for susceptibility. Plates inoculated with filamentous fungi as Aspergillus flavus were incubated at 25 °C for 48 h; Gram positive bacteria as Staphylococcus aureus (ATCC 12600, Microanalytical center, Cairo, Egypt), Bacillus subtilis (ATCC 6051); Gram negative bacteria as Escherichia coli (ATCC 11775), Pseudomonas aeuroginosa (ATCC 10145) were incubated at 35–37 °C for 24–48 h and yeast as Candida albicans (ATCC 7102) was incubated at 30 °C for 24–48 h and, then the diameters of the inhibition zones were measured in millimeters. […] For the disc diffusion, the zone diameters were measured with slipping calipers of the National Committee for Clinical Laboratory Standards, and the results are given in Table 1. […]

[8] = molecular target: T2, E. coli topoisomerase IV (Escherichia coli, UniProt P0AFI2+P20083); experiment: E. coli topoisomerase IV assay; assay type: biochemical
T2 construct: purchased Inspiralis
T2 sequence (P0AFI2 whole entry): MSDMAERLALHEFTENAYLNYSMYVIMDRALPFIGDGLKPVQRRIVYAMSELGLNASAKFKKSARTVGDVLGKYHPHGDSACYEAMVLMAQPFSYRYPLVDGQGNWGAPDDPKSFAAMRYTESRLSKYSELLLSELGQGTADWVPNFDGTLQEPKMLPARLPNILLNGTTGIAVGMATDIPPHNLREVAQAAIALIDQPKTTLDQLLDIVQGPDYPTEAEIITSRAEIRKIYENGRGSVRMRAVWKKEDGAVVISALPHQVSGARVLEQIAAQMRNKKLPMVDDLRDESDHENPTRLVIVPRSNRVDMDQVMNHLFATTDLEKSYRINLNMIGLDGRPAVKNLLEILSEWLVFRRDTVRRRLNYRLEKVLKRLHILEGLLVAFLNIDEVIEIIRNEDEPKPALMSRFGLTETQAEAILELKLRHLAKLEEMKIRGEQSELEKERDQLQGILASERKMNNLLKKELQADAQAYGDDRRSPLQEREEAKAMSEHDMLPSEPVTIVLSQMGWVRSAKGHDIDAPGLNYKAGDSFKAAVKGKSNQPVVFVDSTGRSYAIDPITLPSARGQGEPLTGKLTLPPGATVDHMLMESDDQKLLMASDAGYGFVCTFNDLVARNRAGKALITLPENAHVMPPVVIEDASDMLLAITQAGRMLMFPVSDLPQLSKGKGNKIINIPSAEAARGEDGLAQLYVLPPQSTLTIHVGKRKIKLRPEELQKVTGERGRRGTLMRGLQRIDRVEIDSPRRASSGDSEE
T2 sequence (P20083 whole entry): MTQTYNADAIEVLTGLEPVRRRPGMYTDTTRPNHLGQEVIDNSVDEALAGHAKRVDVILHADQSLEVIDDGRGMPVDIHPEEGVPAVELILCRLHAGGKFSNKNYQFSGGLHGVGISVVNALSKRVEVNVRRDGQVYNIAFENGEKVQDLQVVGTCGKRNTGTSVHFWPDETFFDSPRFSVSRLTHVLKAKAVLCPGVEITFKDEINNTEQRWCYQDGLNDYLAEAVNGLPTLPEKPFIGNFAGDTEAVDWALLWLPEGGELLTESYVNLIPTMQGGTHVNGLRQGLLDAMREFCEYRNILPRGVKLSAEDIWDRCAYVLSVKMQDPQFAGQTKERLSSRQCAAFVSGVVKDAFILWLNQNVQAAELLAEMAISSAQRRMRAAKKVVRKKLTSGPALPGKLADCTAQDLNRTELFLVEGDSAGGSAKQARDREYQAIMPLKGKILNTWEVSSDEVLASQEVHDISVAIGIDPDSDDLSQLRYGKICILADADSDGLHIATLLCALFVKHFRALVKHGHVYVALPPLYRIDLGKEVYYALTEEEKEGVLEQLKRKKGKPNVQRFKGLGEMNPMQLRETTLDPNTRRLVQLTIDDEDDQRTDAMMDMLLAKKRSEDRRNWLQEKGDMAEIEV
Description: as §4, §5

[9] = tested on: P. aeruginosa; experiment: MIC, two-fold serial dilution, P. aeruginosa; assay type: cell-based; conditions: Pseudomonas aeruginosa; read-out: Minimum Inhibitory Concentration (MIC), P. aeruginosa
Description: as §1, §2, §3

[10] = tested on: Pseudomonas aeuroginosa (ATCC 10145); experiment: Kirby-Bauer disc diffusion, P. aeruginosa; assay type: cell-based, Pseudomonas aeruginosa; conditions: % of ciprofloxacin
Description: as §6, §7
(§8) The cultures used were collected from the Cairo University’s Microanalytical Centre, Faculty of Science. An updated Kirby-Bauer disc diffusion method was applied for the antimicrobial activities of the tests for compounds 1–21 [28]. […] Plates inoculated with filamentous fungi as Aspergillus flavus were incubated at 25 °C for 48 h; Gram positive bacteria as Staphylococcus aureus (ATCC 12600, Microanalytical center, Cairo, Egypt), Bacillus subtilis (ATCC 6051); Gram negative bacteria as Escherichia coli (ATCC 11775), Pseudomonas aeuroginosa (ATCC 10145) were incubated at 35–37 °C for 24–48 h and yeast as Candida albicans (ATCC 7102) was incubated at 30 °C for 24–48 h and, then the diameters of the inhibition zones were measured in millimeters. […]

[11] = tested on: Bacillus subtilis (ATCC 6051); experiment: Kirby-Bauer disc diffusion, B. subtilis; assay type: cell-based; conditions: % of ciprofloxacin
Description: as §6, §7, §8

[12] = tested on: most of the pathogens tested; parameters: method as in doi:10.1002/jhet.2760; conditions: cited from earlier work
[13] = molecular target: S. aureus topoisomerase IV; parameters: method as in PMID 29206345; conditions: value given in method; read-out: IC50 of internal standard, S. aureus topoisomerase IV; cited from earlier work

| Compound | MIC [1] | melting point | MIC [2] | viability at 4 days [3] | IC50 [4] | antibacterial activity relative to ciprofloxacin, S. aureus [5] | MIC [6] | antibacterial activity relative to ciprofloxacin, E. coli [7] | IC50 [8] | MIC [9] | antibacterial activity relative to ciprofloxacin, P. aeruginosa [10] | antibacterial activity relative to ciprofloxacin, B. subtilis [11] | times more potent than ampicillin [12] | IC50 [13] |
| --- | --- | --- | --- | --- | --- | --- | --- | --- | --- | --- | --- | --- | --- | --- |
| O=C(O)c1cn(C2CC2)c2cc(N3CCN(Cn4nc(-c5cccnc5)oc4=S)CC3)c(F)cc2c1=O [Compound 5, 1-Cyclopropyl-6-fluoro-4-oxo-7-[4-(5-pyridin-3-yl-2-thioxo-[1,3,4]oxadiazol-3-yl-methyl)-piperazin-1-yl]-1,4-dihydro-quinoline-3-carboxylic acid] | 0.035 mg/L (≈ 0.067 µM) | 230 °C | 0.125 mg/L (≈ 0.239 µM) | 91% | 0.092 ± 0.009 µM | equipotent | 0.062 mg/L (≈ 0.119 µM) | equipotent | 6.8 ± 0.2 µM | 0.125 mg/L (≈ 0.239 µM) | – | – | – | – |
| O=C(O)c1cn(C2CC2)c2cc(N3CCN(Cn4nc(-c5ccncc5)oc4=S)CC3)c(F)cc2c1=O [Compound 6, 1-Cyclopropyl-6-fluoro-4-oxo-7-[4-(5-pyridin-4-yl-2-thioxo-[1,3,4]oxadiazol-3-yl-methyl)-piperazin-1-yl]-1,4-dihydro-quinoline-3-carboxylic acid] | 0.031 mg/L (≈ 0.0593 µM) | – | 0.125 mg/L (≈ 0.239 µM) | 87% | 0.18 ± 0.02 µM | 120% | 0.125 mg/L (≈ 0.239 µM) | – | 8.92 ± 0.2 µM | 0.125 mg/L (≈ 0.239 µM) | – | – | – | – |
| O=C(O)c1cn(C2CC2)c2cc(N3CCN(CN4C(=O)SC(=Cc5ccccc5)C4=O)CC3)c(F)cc2c1=O [Compound 16, 7-[4-(5-Benzylidene-2,4-dioxo-thiazolidin-3-ylmethyl)-piperazin-1-yl]-1-cyclo-propyl-6-fluoro-4-oxo-1,4-dihydro-quinoline-3-carboxylic acid] | – | 237 °C | – | – | – | 85% | – | 93% | – | – | 93% | 93% | – | – |
| O=C(O)c1cn(C2CC2)c2cc(N3CCN(Cn4nc(CN5CCSCC5)oc4=S)CC3)c(F)cc2c1=O [I] | – | – | – | – | – | – | – | – | – | – | – | – | > 41 times | – |
| CO[C@@H]1[C@@H](OC(N)=O)[C@@H](O)[C@H](Oc2ccc3c(O)c(NC(=O)c4ccc(O)c(CC=C(C)C)c4)c(=O)oc3c2C)OC1(C)C [Novobiocin] | – | – | – | – | – | – | – | – | – | – | – | – | – | 26.7 µM |
